Assay results as given in patent US11952368B2, “FAPI dimer compound, FAPI dimer-based positron emission tomography (PET) imaging agent for tumor diagnosis, and preparation method and use thereof” (XIAMEN UNIVERSITY, priority 2021, dated 2024).

How the values were obtained:
FAP on CAFs = target: T1, FAP on CAFs (Homo sapiens, UniProt Q12884); assay: FAP binding assay (radioligand competition) on CAFs; conditions: radiolabeled compound co-incubated 60 min with corresponding unlabeled FAPI derivative
T1 construct: FAP-expressing CAFs were inoculated in a 24-well plate; endogenous in cells; host or cells: cancer-associated fibroblasts (CAFs)
T1 sequence (Q12884 1-760): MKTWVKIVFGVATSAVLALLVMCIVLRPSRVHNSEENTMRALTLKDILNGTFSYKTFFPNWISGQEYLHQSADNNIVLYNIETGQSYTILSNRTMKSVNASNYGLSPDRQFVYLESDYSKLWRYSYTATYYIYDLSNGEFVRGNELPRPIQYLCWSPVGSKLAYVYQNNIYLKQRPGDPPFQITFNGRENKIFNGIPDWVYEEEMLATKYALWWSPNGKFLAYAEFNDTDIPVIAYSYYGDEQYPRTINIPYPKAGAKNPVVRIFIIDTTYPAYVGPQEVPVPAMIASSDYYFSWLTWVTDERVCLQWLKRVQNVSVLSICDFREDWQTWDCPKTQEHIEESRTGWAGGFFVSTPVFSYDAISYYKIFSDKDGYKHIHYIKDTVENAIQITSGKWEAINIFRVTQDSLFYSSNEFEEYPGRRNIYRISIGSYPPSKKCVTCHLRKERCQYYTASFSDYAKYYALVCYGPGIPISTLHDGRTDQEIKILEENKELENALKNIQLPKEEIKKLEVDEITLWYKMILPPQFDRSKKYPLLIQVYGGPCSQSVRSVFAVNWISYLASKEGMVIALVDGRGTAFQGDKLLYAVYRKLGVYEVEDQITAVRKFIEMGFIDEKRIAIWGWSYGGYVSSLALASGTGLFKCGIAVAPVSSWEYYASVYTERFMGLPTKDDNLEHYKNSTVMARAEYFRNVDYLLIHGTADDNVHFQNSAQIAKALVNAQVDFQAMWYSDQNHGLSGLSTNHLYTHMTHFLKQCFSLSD
Experimental: FAP-expressing CAFs were inoculated in a 24-well plate and cultivated with a 10% (volume fraction) FBS-containing 1640 medium for 48 h before the experiment until a cell density was about 80% to 90%; the medium was changed to an FBS-free 1640 medium; and the ^68Ga-2PEG(3)-FAPI-dimer, ^68Ga-FAPI-46, or ^68Ga-2PEG(3)-FAPI-dimer+11.3 nmol FAPI-46 (for the blocking experiment) was added to the 24-well plate and incubated, with predetermined intervals of 10 min, 30 min, 60 min, 90 min, and 120 min. The FAP binding assay was conducted after a radiolabeled compound and a corresponding unlabeled FAPI derivative (1.27×10^−4-10^−13 mol/L of 2PEG(3)-FAPI-dimer was added to ^68Ga-2PEG(3)-FAPI-dimer; and 2.83×10^−4-1×10^−13 mol/L of FAPI-46 was added to ^68Ga-FAPI-46) were co-incubated for 60 min. A half-inhibitory concentration (IC50s) was calculated by using GraphPad Prism to fit data through nonlinear regression. In each step of the experiment, cells were washed twice with 1 mL of PBS. Finally, CAFs were lysed with 0.5 mL of a 1 mol/L NaOH aqueous solution to conduct radioactive counting with a gamma counter. 3 parallel replicates were set for each experiment.

HCC-PDX-1 = assay: Biodistribution in HCC-PDX-1 mice (gamma counter); format: in vivo, mouse; conditions: for tumor uptake: HCC-PDX-1, 1.48 MBq
Experimental: HCC-PDX-1 mice were injected with 1.48 MBq of ^68Ga-2PEG(3)-FAPI-dimer, and 1 h and 4 h after the injection (3 parallel experiments per time point), major organs and tumors were isolated, weighed, and analyzed. The ^68Ga-FAPI-46 group (1.48 MBq) and blocking group (1.48 MBq ^68Ga-2PEG(3)-FAPI-dimer+30 nmol unlabeled FAPI-46) were compared in terms of biodistribution.

[1] = Distribution, dosimetry and safety in healthy volunteers (PET/CT, OLINDA/EXM); format: in vivo, human
Experimental: This experiment was approved by the Clinical Research Ethics Committee of the First Affiliated Hospital of Xiamen University, and all subjects signed a written informed consent form. A dose of ^68Ga-2PEG(3)-FAPI-dimer for intravenous injection (1.8 MBq to 2.2 MBq [0.05 mCi to 0.06 mCi]/kg) was calculated according to a body weight of a subject. Data were acquired using a hybrid PET/CT scanner (Discovery MI, GE Healthcare, Milwaukee, WI, USA) at 10 min, 30 min, 60 min, and 180 min after intravenous injection. A maximum standard uptake value (SUVmax) was automatically calculated with ROIs drawn on a transaxial image. Safety data, including vital signs (blood pressure, pulse, respiratory rate, and body temperature) and adverse events, were acquired 4 h before and after the ^68Ga-2PEG(3)-FAPI-dimer was injected. […] The time-activity curve fitting and subsequent dose calculation were conducted using OLINDA/EXM v.1.1.

[2] = three healthy volunteers, i.v., OLINDA/EXM

In the case of `CN(CCCN1CCN(C(=O)COCCOCCOCCNC(=O)CCC(=O)N[C@@H](CCCCNC(=O)CN2CCN(CC(=O)[O-])CCN(CC(=O)[O-])CCN(CC(=O)[O-])CC2)C(=O)NCCOCCOCCOCC(=O)N2CCN(CCCN(C)c3ccc4nccc(C(=O)NCC(=O)N5CC(F)(F)C[C@H]5C#N)c4c3)CC2)CC1)c1ccc2nccc(C(=O)NCC(=O)N3CC(F)(F)C[C@H]3C#N)c2c1.[68Ga+3]` [^68Ga-2PEG(3)-FAPI-dimer], the IC50 (FAP on CAFs) is reported as 3.57 nM, the “tumor uptake in the blocking group” value (HCC-PDX-1; HCC-PDX-1, 1.48 MBq + 30 nmol unlabeled FAPI-46, 1 h after injection) is reported as 1.07±0.19 % ID/g and the “tumor uptake in the blocking group” value (HCC-PDX-1; HCC-PDX-1, 1.48 MBq + 30 nmol unlabeled FAPI-46, 4 h after injection) is reported as 1.14±0.15 % ID/g. For the same molecule, the tumor uptake (HCC-PDX-1; 1 h after injection) was 8.97±0.32 % ID/g, the tumor uptake (HCC-PDX-1; 4 h after injection) was 7.61±0.64 % ID/g and the “discomfort symptoms after injection (vital signs, adverse events)” value ([1]; i.v. 1.8 MBq to 2.2 MBq/kg, 4 h before and after injection) was “did not undergo any discomfort symptoms”. The “Average value, Adrenal gland (dosimetry)” value [1, 2] was 7.98E−05 mSv/MBq, the “Average value, Ascending colon wall (dosimetry)” value [1, 2] was 2.79E−05 mSv/MBq and the “Average value, Bladder wall (dosimetry)” value [1, 2] was 1.04E−03 mSv/MBq. For the same molecule, the “Average value, Brain (dosimetry)” value [1, 2] was 3.16E−05 mSv/MBq, the “Average value, Breast (dosimetry)” value [1, 2] was 6.36E−05 mSv/MBq and the “Average value, Descending colon wall (dosimetry)” value [1, 2] was 9.22E−04 mSv/MBq. For the same molecule, the “Average value, Effective dose” value [1, 2] was 1.19E−02 mSv/MBq, the “Average value, Effective dose equivalent” value [1, 2] was 1.69E−02 mSv/MBq and the “Average value, Kidney (dosimetry)” value [1, 2] was 1.01E−04 mSv/MBq. The “Average value, Liver (dosimetry)” value [1, 2] was 1.65E−03 mSv/MBq, the “Average value, Lung (dosimetry)” value [1, 2] was 1.36E−03 mSv/MBq and the “Average value, Muscle (dosimetry)” value [1, 2] was 4.19E−05 mSv/MBq. The “Average value, Osteoblast (dosimetry)” value [1, 2] was 6.47E−05 mSv/MBq, the “Average value, Ovary (dosimetry)” value [1, 2] was 5.94E−04 mSv/MBq and the “Average value, Pancreas (dosimetry)” value [1, 2] was 7.61E−04 mSv/MBq. The “Average value, Red bone marrow (dosimetry)” value [1, 2] was 1.12E−03 mSv/MBq, the “Average value, Skin (dosimetry)” value [1, 2] was 1.22E−05 mSv/MBq and the “Average value, Small intestine (dosimetry)” value [1, 2] was 5.18E−05 mSv/MBq. The “Average value, Spleen (dosimetry)” value [1, 2] was 1.58E−04 mSv/MBq, the “Average value, Stomach wall (dosimetry)” value [1, 2] was 7.12E−04 mSv/MBq and the “Average value, Thymus (dosimetry)” value [1, 2] was 9.64E−06 mSv/MBq. The “Average value, Thyroid (dosimetry)” value [1, 2] was 3.11E−03 mSv/MBq and the “Average value, Uterus (dosimetry)” value [1, 2] was 1.27E−05 mSv/MBq.
